Laboratory results as given in ChEMBL document CHEMBL5346961, “Discovery and Evaluation of 3-Quinoxalin Urea Derivatives as Potent, Selective, and Orally Available ATM Inhibitors Combined with Chemotherapy for the Treatment of Cancer via Goal-Oriented Molecule Generation and Virtual Screening” (J Med Chem, 2023).
Active and inactive are the calls of the source. The rule behind the calls is not given here.

Experiments:
[1] = molecular target: T1, Serine-protein kinase ATM (Homo sapiens, UniProt Q13315); test: Inhibition of ATM (unknown origin) assessed as remaining activity at 0.01 uM preincubated with compound for 30 mins followed by substrate addition and measured after 2 hrs by HTRF method relative to control; settings: time 2.5 hrs
HCT-116 [2] = test: Inhibition of colony formation in human HCT-116 cells at 0.01 uM preincubated for 1 hr followed by exposure to 2 Gy gamma irradiation and measured after 1 week by crystal violet staining based […] assay relative to control; assay type: functional; settings: HCT-116, light or radiation study, time 169 hrs
HCT-116 [3] = test: Inhibition of colony formation in human HCT-116 cells preincubated for 1 hr followed by exposure to 2 Gy gamma irradiation and measured after 1 week by crystal violet staining based […] assay; assay type: functional, cell-based; settings: HCT-116, light or radiation study
SW-620 = test: Antiproliferative activity against human SW620 cells assessed as reduction in cell viability incubated for 6 days by MTT assay; assay type: functional, cell-based; settings: SW-620, 144 h
MCF7 [4] = test: Synergistic antiproliferative activity against human MCF7 cells assessed as combination index at […] measured after 6 days in presence etoposide by MTT assay; assay type: functional; settings: dose lower 100 µM; time 6 day
MCF7 [5] = test: Synergistic antiproliferative activity against human MCF7 cells assessed as combination index at […] measured after 6 days in presence irinotecan by MTT assay; assay type: functional; settings: dose lower 100 µM; time 6 day
HCT-116 [6] = test: Induction of apoptosis in human HCT-116 cells assessed as viable cells at 4 uM measured after 2 days in presence of irinotecan by AnnexinV-FITC/PI staining based analysis (reference value: 72.8%); assay type: functional; settings: HCT-116, 48 h, time 2 day, read-out: Activity
HCT-116 [7] = test: Induction of apoptosis in human HCT-116 cells assessed as viable cells at 2 uM measured after 2 days by AnnexinV-FITC/PI staining based analysis (reference value: 72.8%); assay type: functional; settings: HCT-116, 48 h, time 2 day, read-out: Activity
HCT-116 [8] = test: Induction of apoptosis in human HCT-116 cells assessed as viable cells at 4 uM measured after 2 days by AnnexinV-FITC/PI staining based analysis (reference value: 72.8%); assay type: functional; settings: HCT-116, 48 h, time 2 day, read-out: Activity
HCT-116 [9] = test: Induction of apoptosis in human HCT-116 cells assessed as early apoptotic cells at 4 uM measured after 2 days by AnnexinV-FITC/PI staining based analysis (reference value: 14.4%); assay type: functional; settings: time 2 day
HCT-116 [10] = test: Induction of apoptosis in human HCT-116 cells assessed as late apoptotic cells at 1 uM measured after 2 days by AnnexinV-FITC/PI staining based analysis (reference value: 12.2%); assay type: functional; settings: time 2 day
HCT-116 [11] = test: Induction of apoptosis in human HCT-116 cells assessed as late apoptotic cells at 2 uM measured after 2 days by AnnexinV-FITC/PI staining based analysis (reference value: 12.2%); assay type: functional; settings: time 2 day
HCT-116 [12] = test: Induction of apoptosis in human HCT-116 cells assessed as necrotic cells at 1 uM measured after 2 days by AnnexinV-FITC/PI staining based analysis (reference value: 0.64%); assay type: functional; settings: time 2 day
HCT-116 [13] = test: Induction of apoptosis in human HCT-116 cells assessed as viable cells at 1 uM measured after 2 days in presence of irinotecan by AnnexinV-FITC/PI staining based analysis (reference value: 72.8%); assay type: functional; settings: HCT-116, 48 h, time 2 day, read-out: Activity
HCT-116 [14] = test: Induction of apoptosis in human HCT-116 cells assessed as viable cells at 2 uM measured after 2 days in presence of irinotecan by AnnexinV-FITC/PI staining based analysis (reference value: 72.8%); assay type: functional; settings: HCT-116, 48 h, time 2 day, read-out: Activity
HCT-116 [15] = test: Induction of apoptosis in human HCT-116 cells assessed as early apoptotic cells at 4 uM measured after 2 days in presence of irinotecan by AnnexinV-FITC/PI staining based analysis (reference value: 14.4%); assay type: functional; settings: time 2 day
HCT-116 [16] = test: Induction of apoptosis in human HCT-116 cells assessed as late apoptotic cells at 2 uM measured after 2 days in presence of irinotecan by AnnexinV-FITC/PI staining based analysis (reference value: 12.2%); assay type: functional; settings: time 2 day
HCT-116 [17] = test: Induction of apoptosis in human HCT-116 cells assessed as necrotic cells at 1 uM measured after 2 days in presence of irinotecan by AnnexinV-FITC/PI staining based analysis (reference value: 0.64%); assay type: functional; settings: time 2 day
HCT-116 [18] = test: Induction of cell cycle arrest in human HCT-116 cells at 1 to 4 uM measured after 48 hrs by propidium iodide staining based flow cytometry analysis; assay type: functional; settings: dose 1-4 µM
HCT-116 [19] = test: Induction of cell cycle arrest in human HCT-116 cells assessed as increase in accumulation of cells at G2/M phase at 1 to 4 uM measured after 48 hrs in presence of irinotecan by propidium iodide staining based flow cytometry analysis; assay type: functional; settings: dose 1-4 µM
HCT-116 [20] = test: Induction of cell cycle arrest in human HCT-116 cells assessed as loss in accumulation of cells at G0/G1 phase at 1 to 4 uM measured after 48 hrs in presence of irinotecan by propidium iodide staining based flow cytometry analysis; assay type: functional; settings: dose 1-4 µM
[21] = molecular target: T1, Serine-protein kinase ATM; test: Inhibition of ATM (unknown origin) at 1 uM in presence of [gamma33P-ATP] by scintillation counting method relative to control
[22] = molecular target: DNA-dependent protein kinase catalytic subunit (Homo sapiens, UniProt P78527); test: Inhibition of DNA-PK (unknown origin) in presence of [gamma33P-ATP] by scintillation counting method
[23] = Cmax in Balb/C mouse at 10 mg/kg,iv measured upto 48 hrs by LC-MS/MS analysis; assay type: ADME, organism-based; design: time < 48 hrs, dose 10 mg/kg, route iv; settings: in vivo
[24] = Cmax in Balb/C mouse at 10 mg/kg,po measured upto 48 hrs by LC-MS/MS analysis; assay type: ADME, organism-based; design: dose 10 mg/kg, time < 48 hrs, route po; settings: in vivo
[25] = Tmax in Balb/C mouse at 10 mg/kg,iv measured upto 48 hrs by LC-MS/MS analysis; assay type: ADME, organism-based; settings: in vivo
[26] = Half life in Balb/C mouse at 10 mg/kg,po measured upto 48 hrs by LC-MS/MS analysis; assay type: ADME, organism-based; settings: in vivo
[27] = AUC (0 to t) in Balb/C mouse at 10 mg/kg,iv measured upto 48 hrs by LC-MS/MS analysis; assay type: ADME, organism-based; design: time < 48 hrs, dose 10 mg/kg, route iv; settings: in vivo
[28] = AUC (0 to t) in Balb/C mouse at 10 mg/kg,po measured upto 48 hrs by LC-MS/MS analysis; assay type: ADME, organism-based; design: dose 10 mg/kg, time < 48 hrs, route po; settings: in vivo
[29] = Oral bioavailability in Balb/C mouse at 10 mg/kg measured upto 48 hrs by LC-MS/MS analysis; assay type: ADME, organism-based; settings: in vivo
[30] = Toxicity in BALB/c nude mouse assessed as drug tolerance at 20 to 40 mg/kg, po administered once daily for 3 days weekly after irinotecan post treatment for 21 days in presence of irinotecan; assay type: organism-based; settings: in vivo, 504 h, dose 20-40 mg/kg, time 21 day
[31] = Toxicity in BALB/c nude mouse assessed as reduction in body weight at 20 to 40 mg/kg, po administered once daily for 3 days weekly after irinotecan post treatment for 21 days in presence of irinotecan relative to control; assay type: organism-based; design: scale not given: the % may be the effect or the level left; settings: in vivo, 504 h, dose 20-40 mg/kg, time 21 day
HCT-116 [32] = test: Induction of DNA damage in human HCT-116 cells assessed as reduction in ATM phosphorylation at S1981 residue at 0.5 to 2 uM measured after 4 hrs by Western blot analysis; assay type: functional, cell-based; settings: dose 0.5-2 µM
HCT-116 [33] = test: Induction of DNA damage in human HCT-116 cells assessed as reduction in p21 phosphorylation at T145 residue at 0.5 to 2 uM measured after 4 hrs by Western blot analysis; assay type: functional, cell-based; settings: dose 0.5-2 µM

T1 sequence (Q13315 whole entry): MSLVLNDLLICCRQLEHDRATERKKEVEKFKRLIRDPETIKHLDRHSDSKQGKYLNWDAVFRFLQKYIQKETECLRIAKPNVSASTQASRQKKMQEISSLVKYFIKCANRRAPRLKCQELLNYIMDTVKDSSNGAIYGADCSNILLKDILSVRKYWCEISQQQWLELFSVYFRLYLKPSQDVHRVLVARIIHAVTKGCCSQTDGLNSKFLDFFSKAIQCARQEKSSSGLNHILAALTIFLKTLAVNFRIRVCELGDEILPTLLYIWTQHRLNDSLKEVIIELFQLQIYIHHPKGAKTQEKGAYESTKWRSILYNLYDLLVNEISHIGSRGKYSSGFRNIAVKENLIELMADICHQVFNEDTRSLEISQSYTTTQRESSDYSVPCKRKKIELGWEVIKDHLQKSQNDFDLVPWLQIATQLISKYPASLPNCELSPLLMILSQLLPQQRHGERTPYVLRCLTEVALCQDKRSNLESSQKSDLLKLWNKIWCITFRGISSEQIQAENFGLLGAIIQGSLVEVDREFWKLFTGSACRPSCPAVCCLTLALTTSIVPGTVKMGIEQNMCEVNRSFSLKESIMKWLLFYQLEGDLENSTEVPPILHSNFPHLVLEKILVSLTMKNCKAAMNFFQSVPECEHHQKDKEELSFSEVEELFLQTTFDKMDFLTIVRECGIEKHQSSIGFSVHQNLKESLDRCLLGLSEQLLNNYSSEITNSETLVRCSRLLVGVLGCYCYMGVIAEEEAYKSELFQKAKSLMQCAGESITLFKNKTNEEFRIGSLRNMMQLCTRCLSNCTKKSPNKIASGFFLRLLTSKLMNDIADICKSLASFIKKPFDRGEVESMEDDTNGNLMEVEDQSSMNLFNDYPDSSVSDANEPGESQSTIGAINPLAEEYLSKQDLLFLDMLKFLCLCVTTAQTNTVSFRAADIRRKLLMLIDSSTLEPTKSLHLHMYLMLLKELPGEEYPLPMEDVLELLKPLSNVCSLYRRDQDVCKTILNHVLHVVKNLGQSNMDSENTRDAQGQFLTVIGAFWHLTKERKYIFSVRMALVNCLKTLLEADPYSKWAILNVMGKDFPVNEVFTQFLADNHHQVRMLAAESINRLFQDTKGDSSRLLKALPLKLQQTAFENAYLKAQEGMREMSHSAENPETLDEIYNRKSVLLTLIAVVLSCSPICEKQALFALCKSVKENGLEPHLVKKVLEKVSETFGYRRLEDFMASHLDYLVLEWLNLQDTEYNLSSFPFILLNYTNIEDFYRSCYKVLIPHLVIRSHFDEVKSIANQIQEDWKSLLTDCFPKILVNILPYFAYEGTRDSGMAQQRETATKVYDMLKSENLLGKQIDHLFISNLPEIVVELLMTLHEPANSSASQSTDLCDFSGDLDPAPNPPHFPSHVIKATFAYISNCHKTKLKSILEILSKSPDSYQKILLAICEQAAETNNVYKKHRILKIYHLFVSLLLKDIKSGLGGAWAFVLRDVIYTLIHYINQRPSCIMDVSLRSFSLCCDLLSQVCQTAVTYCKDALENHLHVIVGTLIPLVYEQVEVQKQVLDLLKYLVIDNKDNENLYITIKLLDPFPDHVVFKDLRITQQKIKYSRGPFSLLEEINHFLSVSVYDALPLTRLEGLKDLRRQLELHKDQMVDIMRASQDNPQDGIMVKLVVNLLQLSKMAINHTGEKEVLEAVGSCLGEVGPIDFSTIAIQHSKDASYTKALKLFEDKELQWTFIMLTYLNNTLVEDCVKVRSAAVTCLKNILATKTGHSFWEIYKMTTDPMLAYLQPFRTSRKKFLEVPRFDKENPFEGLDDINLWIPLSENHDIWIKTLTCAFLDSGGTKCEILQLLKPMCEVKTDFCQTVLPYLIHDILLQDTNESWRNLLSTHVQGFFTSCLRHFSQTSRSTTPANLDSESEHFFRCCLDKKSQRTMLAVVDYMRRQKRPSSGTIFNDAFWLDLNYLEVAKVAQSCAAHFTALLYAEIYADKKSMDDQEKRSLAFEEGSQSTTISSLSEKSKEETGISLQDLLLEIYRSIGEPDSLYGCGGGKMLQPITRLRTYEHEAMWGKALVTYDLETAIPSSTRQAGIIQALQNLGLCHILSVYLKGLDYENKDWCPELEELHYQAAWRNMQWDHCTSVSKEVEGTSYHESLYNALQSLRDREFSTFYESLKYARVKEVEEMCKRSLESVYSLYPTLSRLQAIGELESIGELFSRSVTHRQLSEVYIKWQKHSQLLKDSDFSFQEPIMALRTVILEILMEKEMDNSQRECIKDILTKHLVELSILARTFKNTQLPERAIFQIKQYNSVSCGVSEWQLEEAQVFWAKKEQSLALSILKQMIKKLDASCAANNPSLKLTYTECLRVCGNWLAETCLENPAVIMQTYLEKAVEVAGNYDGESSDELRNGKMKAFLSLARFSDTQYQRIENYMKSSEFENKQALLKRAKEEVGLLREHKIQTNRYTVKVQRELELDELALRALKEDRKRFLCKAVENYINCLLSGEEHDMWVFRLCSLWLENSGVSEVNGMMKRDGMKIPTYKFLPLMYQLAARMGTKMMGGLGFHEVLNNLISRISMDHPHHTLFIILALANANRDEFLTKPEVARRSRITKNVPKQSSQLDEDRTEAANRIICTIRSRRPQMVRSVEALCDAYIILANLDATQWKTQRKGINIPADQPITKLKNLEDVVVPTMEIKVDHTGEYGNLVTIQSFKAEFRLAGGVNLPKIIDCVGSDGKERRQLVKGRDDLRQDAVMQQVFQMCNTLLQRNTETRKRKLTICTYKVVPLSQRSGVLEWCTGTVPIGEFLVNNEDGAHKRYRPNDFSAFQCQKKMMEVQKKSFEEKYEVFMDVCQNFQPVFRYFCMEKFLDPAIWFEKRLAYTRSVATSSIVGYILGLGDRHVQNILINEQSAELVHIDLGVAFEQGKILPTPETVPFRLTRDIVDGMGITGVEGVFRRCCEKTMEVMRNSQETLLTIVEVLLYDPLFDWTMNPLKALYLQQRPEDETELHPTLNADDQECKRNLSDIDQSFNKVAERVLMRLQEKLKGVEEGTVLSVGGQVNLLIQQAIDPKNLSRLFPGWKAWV

SMILES: CC(C)NC(=O)N(C)c1cnc2ccc(-c3ccc(OCCCN4CCCCC4)nc3)cc2n1
- Activity [1]: 2%
- inhibition at 0.01 µM (HCT-116 [2]): 94.1%
- IC50 (HCT-116 [3]): 1.69 nM
- IC50 (SW-620): > 9000 nM
- CI (MCF7 [4]): <1
- CI (MCF7 [5]): <1
- viability at 4 µM (HCT-116 [6]): 7.37%
- viability at 2 µM (HCT-116 [7]): 67.3%
- viability at 4 µM (HCT-116 [8]): 68.3%
- Activity (HCT-116 [9]): 18.1%
- Activity (HCT-116 [10]): 12.6%
- Activity (HCT-116 [11]): 14.2%
- Activity (HCT-116 [12]): 1.01%
- viability at 1 µM (HCT-116 [13]): 17.3%
- viability at 2 µM (HCT-116 [14]): 14%
- Activity (HCT-116 [15]): 55.7%
- Activity (HCT-116 [16]): 33.1%
- Activity (HCT-116 [17]): 2.39%
- Activity (HCT-116 [18]): inactive
- Activity (HCT-116 [19]): Active
- Activity (HCT-116 [20]): Active
- inhibition [21]: < 50%
- IC50 [22]: 420 nM
- Cmax [23]: 6790 ng/mL
- Cmax [24]: 10200 ng/mL
- Tmax [25]: 4.8 min
- t1/2 [26]: 3.37 h
- AUCt [27]: 13027.01 ng·h/mL
- AUCt [28]: 13952.23 ng·h/mL
- bioavailability [29]: 107%
- Activity [30]: Toxic
- Activity [31]: < 12%
- Activity (HCT-116 [32]): Active
- Activity (HCT-116 [33]): Active
